Among the data in US11547697B2, “Heterocyclic compounds and uses thereof” (MILLENNIUM PHARMACEUTICALS, INC., priority 2009, dated 2023) are IC50 values, retold here.

Read-outs that look alike come from different tables or passages of the source. Bounds are passed on as bounds.

What all share (assay type): biochemical
The target of assay [1] is p110γ (Homo sapiens (Human), UniProt P48736). Nature of the assay: PI 3-Kinase (human) HTRF assay, p110γ. (In general: Time-resolved FRET reads energy transfer from a long-lived donor to a nearby acceptor.)
p110γ, sequence (P48736 whole entry): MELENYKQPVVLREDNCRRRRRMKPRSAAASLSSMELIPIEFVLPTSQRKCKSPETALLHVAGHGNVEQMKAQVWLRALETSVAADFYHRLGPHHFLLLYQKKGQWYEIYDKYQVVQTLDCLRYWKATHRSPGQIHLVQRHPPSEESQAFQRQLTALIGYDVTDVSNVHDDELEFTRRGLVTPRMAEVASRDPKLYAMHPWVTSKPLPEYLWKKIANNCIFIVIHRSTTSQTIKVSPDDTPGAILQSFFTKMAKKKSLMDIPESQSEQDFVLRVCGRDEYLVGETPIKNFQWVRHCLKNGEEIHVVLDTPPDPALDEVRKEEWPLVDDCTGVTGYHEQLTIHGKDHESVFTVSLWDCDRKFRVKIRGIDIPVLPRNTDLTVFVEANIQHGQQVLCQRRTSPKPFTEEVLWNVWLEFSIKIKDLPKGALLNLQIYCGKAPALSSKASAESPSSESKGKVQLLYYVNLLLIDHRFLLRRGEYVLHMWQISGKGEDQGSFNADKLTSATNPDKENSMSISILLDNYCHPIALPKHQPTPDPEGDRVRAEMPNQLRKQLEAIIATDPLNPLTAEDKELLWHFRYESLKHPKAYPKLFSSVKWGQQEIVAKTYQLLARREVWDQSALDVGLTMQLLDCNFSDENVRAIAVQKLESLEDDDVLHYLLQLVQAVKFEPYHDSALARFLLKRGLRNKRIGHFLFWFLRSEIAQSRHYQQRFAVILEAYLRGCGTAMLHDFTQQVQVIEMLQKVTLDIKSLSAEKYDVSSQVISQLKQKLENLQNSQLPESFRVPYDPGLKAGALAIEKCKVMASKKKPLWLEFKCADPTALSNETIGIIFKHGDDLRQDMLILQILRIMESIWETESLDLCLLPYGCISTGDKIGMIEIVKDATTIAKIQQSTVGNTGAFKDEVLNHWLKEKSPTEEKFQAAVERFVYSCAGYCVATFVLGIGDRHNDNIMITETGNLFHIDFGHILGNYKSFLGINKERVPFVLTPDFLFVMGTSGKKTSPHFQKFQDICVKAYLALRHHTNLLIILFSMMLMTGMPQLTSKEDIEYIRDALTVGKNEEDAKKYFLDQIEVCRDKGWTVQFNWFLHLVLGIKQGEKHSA
Assay [2] addresses p110α/p85α (Homo sapiens (Human), UniProt P42336). Nature of the assay: PI 3-Kinase (human) HTRF assay, p110α/p85α.
Assay [3] addresses p110β/p85α (Homo sapiens (Human), UniProt P42338). Nature of the assay: PI 3-Kinase (human) HTRF assay, p110β/p85α.
The mark [4] stands for this setting: in vitro, read-out: PI3K γ IC50.
[5] abbreviates: in vitro, read-out: PI3K α IC50.
Where [6] appears, read: in vitro, read-out: PI3K β IC50.

p110α/p85α, sequence (P42336 whole entry): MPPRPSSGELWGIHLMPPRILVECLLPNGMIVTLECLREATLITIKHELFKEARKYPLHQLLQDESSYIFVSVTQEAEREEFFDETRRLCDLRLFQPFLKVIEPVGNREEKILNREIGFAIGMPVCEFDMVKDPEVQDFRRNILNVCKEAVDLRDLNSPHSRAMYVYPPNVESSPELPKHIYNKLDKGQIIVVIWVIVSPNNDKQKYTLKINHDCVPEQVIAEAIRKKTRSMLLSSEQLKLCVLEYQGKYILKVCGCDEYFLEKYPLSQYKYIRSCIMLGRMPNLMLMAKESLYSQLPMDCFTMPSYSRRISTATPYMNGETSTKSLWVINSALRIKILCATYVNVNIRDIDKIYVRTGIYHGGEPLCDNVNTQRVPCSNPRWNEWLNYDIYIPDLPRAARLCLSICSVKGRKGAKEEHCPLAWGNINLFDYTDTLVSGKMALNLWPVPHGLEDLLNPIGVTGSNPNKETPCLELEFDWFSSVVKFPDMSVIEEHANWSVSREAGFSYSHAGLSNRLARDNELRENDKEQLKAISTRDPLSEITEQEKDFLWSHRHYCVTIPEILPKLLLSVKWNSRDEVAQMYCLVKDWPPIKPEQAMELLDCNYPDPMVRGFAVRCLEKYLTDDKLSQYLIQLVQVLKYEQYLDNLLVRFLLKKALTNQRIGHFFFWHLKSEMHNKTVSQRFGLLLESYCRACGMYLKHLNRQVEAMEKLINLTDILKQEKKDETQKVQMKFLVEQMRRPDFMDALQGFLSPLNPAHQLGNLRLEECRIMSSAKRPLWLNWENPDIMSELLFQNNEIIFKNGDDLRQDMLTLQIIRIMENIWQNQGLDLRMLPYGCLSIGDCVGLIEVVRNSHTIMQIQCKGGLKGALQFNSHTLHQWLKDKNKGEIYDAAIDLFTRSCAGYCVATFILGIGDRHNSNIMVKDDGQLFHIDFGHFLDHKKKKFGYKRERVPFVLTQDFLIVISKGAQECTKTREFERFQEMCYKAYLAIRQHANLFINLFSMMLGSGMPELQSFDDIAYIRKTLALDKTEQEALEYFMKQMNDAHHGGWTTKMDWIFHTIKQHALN
p110α/p85α, sequence (P27986 whole entry partner): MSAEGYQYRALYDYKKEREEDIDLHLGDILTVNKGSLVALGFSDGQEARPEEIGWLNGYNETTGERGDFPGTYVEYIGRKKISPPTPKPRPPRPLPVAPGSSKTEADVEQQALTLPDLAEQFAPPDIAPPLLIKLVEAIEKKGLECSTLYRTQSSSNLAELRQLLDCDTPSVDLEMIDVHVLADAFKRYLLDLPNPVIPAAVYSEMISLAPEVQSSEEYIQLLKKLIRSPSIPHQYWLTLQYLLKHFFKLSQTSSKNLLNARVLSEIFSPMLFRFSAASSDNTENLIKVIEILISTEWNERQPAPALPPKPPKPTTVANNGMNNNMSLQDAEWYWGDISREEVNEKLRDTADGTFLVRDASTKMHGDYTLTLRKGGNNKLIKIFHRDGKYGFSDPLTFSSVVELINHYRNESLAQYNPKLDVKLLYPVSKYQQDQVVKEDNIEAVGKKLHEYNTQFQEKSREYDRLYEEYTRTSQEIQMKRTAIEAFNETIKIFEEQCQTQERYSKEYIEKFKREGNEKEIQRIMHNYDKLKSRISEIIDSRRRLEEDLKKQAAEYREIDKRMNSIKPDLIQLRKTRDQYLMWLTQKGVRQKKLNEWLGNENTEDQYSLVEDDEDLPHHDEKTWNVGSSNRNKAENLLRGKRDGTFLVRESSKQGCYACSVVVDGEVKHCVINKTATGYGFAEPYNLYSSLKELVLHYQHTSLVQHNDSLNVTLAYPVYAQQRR
p110β/p85α, sequence (P42338 whole entry): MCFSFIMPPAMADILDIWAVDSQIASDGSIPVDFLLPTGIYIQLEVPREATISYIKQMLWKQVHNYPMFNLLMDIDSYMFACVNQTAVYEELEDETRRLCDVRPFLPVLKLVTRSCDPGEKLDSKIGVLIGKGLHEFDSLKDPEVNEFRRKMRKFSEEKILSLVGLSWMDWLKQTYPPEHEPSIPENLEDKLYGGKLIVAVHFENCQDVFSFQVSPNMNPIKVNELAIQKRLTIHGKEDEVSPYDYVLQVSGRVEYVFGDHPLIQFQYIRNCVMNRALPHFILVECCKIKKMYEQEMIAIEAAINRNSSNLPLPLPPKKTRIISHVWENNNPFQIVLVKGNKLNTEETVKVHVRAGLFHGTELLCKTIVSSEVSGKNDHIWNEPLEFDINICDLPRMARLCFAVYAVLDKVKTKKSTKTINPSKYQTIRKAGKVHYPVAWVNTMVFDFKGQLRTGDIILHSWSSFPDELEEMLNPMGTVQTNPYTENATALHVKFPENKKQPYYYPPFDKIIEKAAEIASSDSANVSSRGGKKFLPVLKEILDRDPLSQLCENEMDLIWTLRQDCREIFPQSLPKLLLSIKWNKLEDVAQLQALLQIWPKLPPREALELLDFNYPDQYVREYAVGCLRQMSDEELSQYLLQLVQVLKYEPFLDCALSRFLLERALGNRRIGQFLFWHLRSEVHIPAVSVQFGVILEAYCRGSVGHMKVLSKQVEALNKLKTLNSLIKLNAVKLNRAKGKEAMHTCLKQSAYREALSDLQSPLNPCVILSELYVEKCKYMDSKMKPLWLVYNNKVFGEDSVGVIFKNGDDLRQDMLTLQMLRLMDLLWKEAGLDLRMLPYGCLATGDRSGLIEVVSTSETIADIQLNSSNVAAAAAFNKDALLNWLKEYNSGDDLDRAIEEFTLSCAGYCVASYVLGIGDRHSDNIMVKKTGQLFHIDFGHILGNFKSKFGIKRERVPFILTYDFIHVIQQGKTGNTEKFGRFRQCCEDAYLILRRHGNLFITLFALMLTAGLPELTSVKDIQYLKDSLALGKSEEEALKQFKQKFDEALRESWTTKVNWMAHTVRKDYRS
p110β/p85α, sequence (P27986 whole entry partner): as the sequence (P27986 whole entry partner) above

The term IC50 denotes the point on the concentration scale where inhibition reaches its midpoint. `Cc1ccn(C2CCN(C(=O)c3cnc4ccc(-c5ccc6oc(N)nc6c5)cn34)CC2)n1` [compound 297]: the IC50 in assay [1] (setting [4]) is under 10000 nM; in assay [2] (setting [5]), under 1000 nM.

As for `Nc1nc2cc(-c3ccc4nnc(-c5cccnc5)n4c3)ccc2o1` [compound 300], the concentration for half-maximal inhibition (IC50) in assay [3] (setting [6]) and in assay [2] (setting [5]) was under 10000 nM in each case.

Consider `Nc1nc2ccc(-c3ccc4nnc(-c5cccnc5)n4c3)cc2o1` [compound 301], for which the half-inhibitory concentration (IC50) in assay [3] (setting [6]) and in assay [2] (setting [5]) was under 10000 nM each time. On to `C[C@H]1CN(c2cnc3ccc(-c4ccc5sc(N)nc5c4)cc3n2)CCN1` [compound 307], for which the half-inhibitory concentration (IC50) in assay [3] (setting [6]) and in assay [2] (setting [5]) was under 1000 nM throughout. With `Nc1nc2cc(-c3ccc4ncc(N5CCC(n6cccn6)CC5)nc4c3)ccc2o1` [compound 337], the IC50 in assay [1] (setting [4]) was under 1000 nM; in assay [2] (setting [5]), under 100 nM. For `Nc1nc2cc(-c3ccc4ncc(C(=O)N5CC5)n4c3)ccc2o1` [compound 340] the same measures were under 1000 nM and under 1000 nM. Consider `C[C@H]1CN(c2cnc3cccc(-c4ccc5nc(N)oc5c4)c3n2)CCN1` [compound 343], for which the half-inhibitory concentration (IC50) in assay [3] (setting [6]) was under 10000 nM. Take `Cc1cc2oc(N)nc2cc1-c1ccc2ncc(N3CCN[C@@H](C)C3)nc2c1` [compound 351]: the IC50 in assay [3] (setting [6]) was under 1000 nM; in assay [2] (setting [5]), under 10000 nM. For `Nc1nc2cc(-c3ccc4ncc(N5CC(N6CCOCC6)C5)nc4c3)c(Cl)cc2o1` [compound 371] the same measures were under 10000 nM and under 1000 nM. The matching figures for `CN1CCC(c2cnc3ccc(-c4ccc5oc(N)nc5c4)cc3n2)CC1` [compound 385]: under 10000 nM and under 100 nM. Regarding `Nc1nc2cc(-c3ccc4ncc(N5CCNCC5=O)nc4c3)ccc2o1` [compound 389], the IC50 was under 10000 nM in assay [1] (setting [4]) and under 1000 nM in assay [2] (setting [5]). Consider `CN1CCN(c2cnc3ccc(-c4ccc5oc(N)nc5c4)cc3n2)C(=O)C1` [compound 390], for which the IC50 is under 10000 nM in assay [1] (setting [4]) and under 1000 nM in assay [2] (setting [5]). The matching figures for `Nc1nc2cc(-c3ccc4ncc(N5CCN(CC(F)(F)F)CC5)nc4c3)ccc2o1` [compound 395]: under 100 nM and under 100 nM. For the compound `CNc1nc2cc(-c3ccc4ncc(C(=O)N5CCOCC5)n4c3)ccc2o1` [compound 406], the half-inhibitory concentration (IC50) in assay [3] (read-out: PI3K β In Vitro IC50) and in assay [2] (read-out: PI3K α In Vitro IC50) was under 10000 nM each time. Take `O=C(c1cnc2ccc(-c3ccc4oc(Nc5ccccc5)nc4c3)cn12)N1CCOCC1` [compound 407]: the IC50 in assay [3] (read-out: PI3K β In Vitro IC50) was under 10000 nM. As for `Cc1cc(-c2ccc3oc(N)nc3c2)cn2c(C(=O)N3CCOCC3)cnc12` [compound 448], the IC50 in assay [1] (read-out: PI3K γ In Vitro IC50) was under 10000 nM; in assay [2] (read-out: PI3K α In Vitro IC50), under 1000 nM.

On to `O=C(c1cnc2ccc(-c3cccc(NS(=O)(=O)c4ccccc4)c3)cn12)N1CCOCC1` [compound 453], for which the IC50 in assay [1] (read-out: PI3K γ In Vitro IC50) and in assay [2] (read-out: PI3K α In Vitro IC50) was under 10000 nM throughout. For the compound `COc1ccc(-c2ccc3ncc(C(=O)N4CCOCC4)n3c2)cc1NS(=O)(=O)c1ccccc1` [compound 455], the IC50 in assay [1] (read-out: PI3K γ In Vitro IC50) and in assay [2] (read-out: PI3K α In Vitro IC50) was under 10000 nM in each case. As for `O=C(c1cnc2ccc(-c3ccc(Cl)c(NS(=O)(=O)c4ccccc4)c3)cn12)N1CCOCC1` [compound 459], the 50% inhibitory concentration (IC50) in assay [1] (read-out: PI3K γ In Vitro IC50) and in assay [2] (read-out: PI3K α In Vitro IC50) was under 1000 nM in each case.

On to `Nc1nc2cc(-c3ccc4ncc(C(=O)N5CC[C@H](N6CCOCC6)C5)n4c3)ccc2o1` [compound 465], for which the IC50 is under 1000 nM in assay [1] (read-out: PI3K γ In Vitro IC50) and under 100 nM in assay [2] (read-out: PI3K α In Vitro IC50). The matching figures for `Nc1nc2cc(-c3ccc4ncc(C(=O)N5CC[C@H](F)C5)n4c3)ccc2o1` [compound 476]: under 100 nM and under 100 nM. The matching figures for `CNc1noc2cc(-c3ccc4ncc(C(=O)N5CCOCC5)n4c3)ccc12` [compound 486]: under 10000 nM and under 10000 nM. For `Nc1nc2cc(-c3ccc4ncc(C(=O)N5CCC(N6CC(F)(F)C6)C5)n4c3)ccc2o1` (stereo not drawn) [compound 498], the 50% inhibitory concentration (IC50) in assay [1] (read-out: PI3K γ In Vitro IC50) is under 10000 nM; in assay [2] (read-out: PI3K α In Vitro IC50), under 1000 nM.

For `Nc1nc2cc(-c3ccc4ncc(C(=O)N5CCC6(C5)OCCO6)n4c3)ccc2o1` [compound 499], the results for the IC50 in assay [1] (read-out: PI3K γ In Vitro IC50) and in assay [2] (read-out: PI3K α In Vitro IC50) were under 10000 nM and under 1000 nM, respectively. On to `Nc1nc2cc(-c3ccc4ncc(C(=O)N5CCC(F)(F)CC5)n4c3)ccc2o1` [compound 501], for which the results for the IC50 in assay [1] (read-out: PI3K γ In Vitro IC50) and in assay [2] (read-out: PI3K α In Vitro IC50) were under 10000 nM and under 1000 nM, respectively. For `Nc1nc2cc(-c3ccc4ncc(C(=O)N5CCC(F)CC5)n4c3)ccc2o1` [compound 503] the same measures were under 100 nM and under 1000 nM. The matching figures for `CC1(C)CN(C(=O)c2cnc3ccc(-c4ccc5oc(N)nc5c4)cn23)CCO1` [compound 513]: under 10000 nM and under 1000 nM.

Turning to `CN1CC(n2cnc3ccc(-c4ccc5oc(N)nc5c4)cc3c2=O)C1` [compound 528], the IC50 in assay [3] (read-out: PI3K β In Vitro IC50) was under 10000 nM; in assay [2] (read-out: PI3K α In Vitro IC50) it was under 1000 nM.
